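Tested at 5 concentrations; 48 h exposure; 96-well plates; endpoints linearly interpolated, else capped at highest concentration. GI50 marks 50% less growth.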 Calls of active or inactive are those of the source. Rule as the data show it: active = GI50 up to about 1.1 µM and inactive = higher.

Among the test systems are K562; HOP-92; OVCAR-3; NCI-H23; RPMI-8226; NCI-H460; UO-31; SNB-75; IGROV-1; ACHN; SF-295; TK-10; OVCAR-8; SW-620; SN12C; SF-539.
Experiment in all cases: NCI-60 cell line screen, 48 h

For the compound `Cc1ccc(OCC(=O)N2N=C(c3ccccc3)CC2(O)c2ccccc2)cc1` (stereo not drawn), the GI50 with K562 was 20.2 µM (inactive); in the test on HOP-92, 55.2 µM (inactive); in the test on OVCAR-3 it was 33.3 µM (inactive); in the test with NCI-H23 it was 22.6 µM (inactive); in the test with RPMI-8226, 16.6 µM (inactive); in the test on NCI-H460, 15 µM (inactive). The GI50 in the test with UO-31 was > 100 µM (inactive); with SNB-75 it was 55.3 µM (inactive); in the test with IGROV-1 it was 39.4 µM (inactive); in the test on ACHN it was > 100 µM (inactive); with SF-295, 76 µM (inactive); in the test on TK-10 it was > 100 µM (inactive). In addition, the GI50 in the test with OVCAR-8 was 91.2 µM (inactive); in the test with SW-620 it was 51.6 µM (inactive); with SN12C, 17.3 µM (inactive); in the test with SF-539, 43 µM (inactive).
As to `O=C1C(=O)N(c2ccc(Cl)cc2Cl)C(=O)C(=O)C1c1nc2ccccc2s1`, the GI50 in the test with K562 was 31 µM (inactive); in the test on HOP-92, 80.4 µM (inactive); with OVCAR-3, > 100 µM (inactive); in the test with NCI-H23, > 64 µM (inactive); in the test on RPMI-8226, 48 µM (inactive); in the test with NCI-H460 it was > 100 µM (inactive). Further, the GI50 is > 77.4 µM (inactive) in the test with UO-31; 20.9 µM (inactive) in the test with SNB-75; > 100 µM (inactive) in the test with IGROV-1; > 100 µM (inactive) in the test on ACHN; > 100 µM (inactive) with SF-295; > 100 µM (inactive) in the test with TK-10. Also, the GI50 in the test on OVCAR-8 is > 100 µM (inactive); in the test on SW-620 it was > 78.3 µM (inactive); in the test on SN12C it was > 100 µM (inactive); in the test on SF-539, > 100 µM (inactive).
Turning to `CCOC(=O)CCC(NC(=O)c1ccc(/N=C/c2nc3ccccc3nc2-c2ccccc2)cc1)C(=O)OCC` (stereo not drawn), the GI50 in the test with K562, in the test with HOP-92, in the test on OVCAR-3, with NCI-H23, in the test with RPMI-8226 and in the test on NCI-H460 was > 100 µM (inactive) each time. For the same compound, the GI50 is > 100 µM (inactive) in the test on UO-31; 20 µM (inactive) with SNB-75; > 100 µM (inactive) with IGROV-1; > 100 µM (inactive) in the test on ACHN; > 100 µM (inactive) in the test with SF-295; > 100 µM (inactive) in the test with TK-10. The GI50 was 13.9 µM (inactive) in the test with OVCAR-8, > 100 µM (inactive) in the test on SW-620, 79.1 µM (inactive) in the test with SN12C and > 100 µM (inactive) in the test on SF-539.
Turning to `N#Cc1nn(-c2ccc(Cl)cc2)c(=N)c2c(N)n3nc(-c4ccccc4)cc3nc12`, the GI50 was 1 µM (active) in the test on K562; 0.546 µM (active) in the test on HOP-92; 0.804 µM (active) in the test on OVCAR-3; 0.83 µM (active) with NCI-H23; 1 µM (active) in the test with RPMI-8226; 1 µM (active) with NCI-H460. Further, the GI50 in the test on SNB-75 was 1 µM (active); with IGROV-1, 0.546 µM (active); in the test with ACHN it was 1 µM (active); in the test with SF-295, 0.681 µM (active); in the test with TK-10, > 100 µM (inactive); with OVCAR-8 it was 0.64 µM (active). Moreover, the GI50 with SW-620 is > 100 µM (inactive); in the test on SN12C, 1 µM (active); with SF-539 it was 0.497 µM (active).
Regarding `COc1cc(/C=C2/C(=O)N(C(=O)OC(C)C)C(Cc3cc(OC)c(OC)c(C)c3OC)C(=O)N2Cc2ccccc2)c(OC)c(C)c1OC` (stereo not drawn), the GI50 in the test on K562 was 6.79 µM (inactive); with HOP-92, 4 µM (inactive); in the test with OVCAR-3 it was 12.7 µM (inactive); in the test with NCI-H23, 13.2 µM (inactive); in the test on RPMI-8226, 6.58 µM (inactive); with NCI-H460, 3.51 µM (inactive). Moreover, the GI50 in the test with UO-31 is 9.06 µM (inactive); with SNB-75, 56 µM (inactive); in the test with IGROV-1, > 100 µM (inactive); with ACHN, > 100 µM (inactive); in the test on SF-295, 68.7 µM (inactive); in the test on TK-10, 35.6 µM (inactive). The GI50 in the test on OVCAR-8 was 28.2 µM (inactive); with SW-620 it was 14.8 µM (inactive); in the test with SN12C it was 54.8 µM (inactive); in the test with SF-539 it was > 100 µM (inactive).
As to `Cc1c(C)c2ccc3oc4ccccc4c3c2oc1=O`, the GI50 in the test on K562 is > 100 µM (inactive); in the test on HOP-92, 52.6 µM (inactive); in the test with OVCAR-3, > 100 µM (inactive); with NCI-H23 it was > 100 µM (inactive); with RPMI-8226, > 100 µM (inactive); with NCI-H460 it was > 100 µM (inactive). Also, the GI50 is > 100 µM (inactive) in the test on UO-31; 57.8 µM (inactive) with SNB-75; > 100 µM (inactive) in the test with IGROV-1; > 100 µM (inactive) in the test on ACHN; 67.3 µM (inactive) in the test on SF-295; > 100 µM (inactive) in the test with TK-10. The GI50 in the test with OVCAR-8, in the test on SW-620, with SN12C and with SF-539 was > 100 µM (inactive) each time.
Regarding `COC(=O)c1ncc2c(=O)[nH]c3ccccc3c2c1C(=O)OC`, the GI50 was > 100 µM (inactive) with K562; > 100 µM (inactive) with HOP-92; > 100 µM (inactive) in the test with OVCAR-3; > 100 µM (inactive) in the test on NCI-H23; > 100 µM (inactive) in the test on RPMI-8226; 22 µM (inactive) in the test with NCI-H460. Moreover, the GI50 with UO-31, in the test with SNB-75, in the test on IGROV-1, in the test on ACHN, in the test on SF-295 and in the test with TK-10 was > 100 µM (inactive) in each case. In addition, the GI50 in the test with OVCAR-8, with SW-620, in the test with SN12C and with SF-539 was > 100 µM (inactive) in each case.
For `O=C(O)c1ccccc1C1c2ccc(Cl)cc2Oc2cc(Cl)ccc21`, the GI50 in the test with K562, in the test on HOP-92, in the test with OVCAR-3, in the test on NCI-H23, in the test with RPMI-8226 and in the test with NCI-H460 was > 100 µM (inactive) each time. Also, the GI50 with UO-31, in the test on SNB-75, in the test with IGROV-1, with ACHN, with SF-295 and in the test with TK-10 was > 100 µM (inactive) in each case. The GI50 in the test on OVCAR-8, in the test on SW-620, with SN12C and in the test on SF-539 was > 100 µM (inactive) throughout.
As for `O=c1c([Se]c2coc3ccccc3c2=O)coc2ccccc12`, the GI50 was 34.1 µM (inactive) in the test on K562; 17.6 µM (inactive) with HOP-92; 18 µM (inactive) with OVCAR-3; 15.6 µM (inactive) with NCI-H23; 22.8 µM (inactive) with RPMI-8226; 3.65 µM (inactive) in the test on NCI-H460. Moreover, the GI50 in the test with UO-31 was 13.5 µM (inactive); in the test on SNB-75 it was 15.6 µM (inactive); in the test with IGROV-1, 10.5 µM (inactive); in the test on ACHN it was 18.2 µM (inactive); in the test with SF-295, 2.76 µM (inactive); in the test on TK-10 it was 17.7 µM (inactive). In addition, the GI50 was 12.7 µM (inactive) in the test with OVCAR-8, 19 µM (inactive) with SW-620, 15 µM (inactive) in the test with SN12C and 11.9 µM (inactive) in the test with SF-539.
In the case of `CC(=O)Nc1ccc(-c2nnc(SCC(=O)Nc3cccc(C)c3)o2)cc1`, the GI50 with K562 was 10.8 µM (inactive); in the test with HOP-92, 13 µM (inactive); in the test with OVCAR-3 it was 11.7 µM (inactive); with NCI-H23, 7.55 µM (inactive); in the test on RPMI-8226 it was 13.8 µM (inactive); in the test on NCI-H460 it was 15 µM (inactive). Moreover, the GI50 with UO-31 is 13.2 µM (inactive); in the test with SNB-75, 19.5 µM (inactive); in the test with IGROV-1 it was 11.7 µM (inactive); with ACHN, 10.7 µM (inactive); with SF-295, 10.8 µM (inactive); in the test with TK-10 it was 15.8 µM (inactive). Also, the GI50 in the test on OVCAR-8 was 16.3 µM (inactive); with SW-620 it was 12.8 µM (inactive); in the test with SN12C, 15.2 µM (inactive); in the test with SF-539, 14.5 µM (inactive).
As to `CCOC(=O)C1S(=O)(=O)OCCOS1(=O)=O`, the GI50 with K562, in the test on HOP-92, in the test with OVCAR-3, with NCI-H23, with RPMI-8226 and in the test on UO-31 was > 100 µM (inactive) each time. Further, the GI50 in the test on SNB-75, with IGROV-1, in the test on SF-295, in the test with TK-10, in the test with OVCAR-8 and with SW-620 was > 100 µM (inactive) throughout. For the same compound, the GI50 in the test with SN12C and in the test with SF-539 was > 100 µM (inactive) each time.
As for `COc1cccc(/C=C\c2cc(OC)c(OC)c(OC)c2)c1`, the GI50 is 0.373 µM (active) in the test with K562; 22.6 µM (inactive) in the test with HOP-92; 0.506 µM (active) in the test on OVCAR-3; 1.32 µM (inactive) in the test with NCI-H23; 0.845 µM (active) in the test on RPMI-8226; 0.562 µM (active) with NCI-H460. Moreover, the GI50 was 4.48 µM (inactive) with UO-31; 0.652 µM (active) in the test on SNB-75; 3.15 µM (inactive) in the test with IGROV-1; 5.79 µM (inactive) in the test with ACHN; 3.49 µM (inactive) with OVCAR-8; 0.656 µM (active) in the test on SW-620. Also, the GI50 in the test with SN12C was 4.08 µM (inactive); in the test with SF-539 it was 0.753 µM (active).
In the case of `Cc1cc(C)c(C(=O)/C=C/c2ccccc2)c(C)c1`, the GI50 in the test with K562 is 26.5 µM (inactive); in the test on HOP-92, 19.1 µM (inactive); in the test with OVCAR-3, > 10 µM (inactive); in the test with NCI-H23, 26.4 µM (inactive); in the test on RPMI-8226 it was 29.8 µM (inactive); with NCI-H460 it was 18.7 µM (inactive). The GI50 in the test on UO-31 was 52.4 µM (inactive); with SNB-75, 40.9 µM (inactive); in the test with IGROV-1 it was 77.4 µM (inactive); in the test on ACHN, 38.4 µM (inactive); with SF-295, 21.8 µM (inactive); in the test with TK-10 it was 47.5 µM (inactive). Moreover, the GI50 is 15.5 µM (inactive) in the test with OVCAR-8, 23 µM (inactive) in the test on SW-620, 14.4 µM (inactive) in the test on SN12C and > 10 µM (inactive) in the test with SF-539.

The values above are taken from ChEMBL document CHEMBL1201862, “PubChem BioAssay data set” (2004).
